21 compounds from US20240150313A1, “TRI-SUBSTITUTED INDOLE BINDING FUNCTION 3 (BF3) COMPOUNDS AND METHODS FOR THEIR USE” (The University of British Columbia, priority 2021, published 2024) can be followed below.

Entries after “also recorded” stand apart in the source; their conditions may differ. Where two headings read alike, the source gives them in different places.

Series [1] is described as follows: Microsomal stability (half-life). It counts as in vitro ADME, human. The note with it: for half-life: Table 6.
In series [2] the test system is AR-mediated PSA expression in LNCaP cells. Kind of series: Prostate-Specific Antigen (PSA) assay. It counts as cell-based, human. The note with it: Table 6. Here is the method: Prostate-Specific Antigen (PSA) Assay: The evaluation of PSA levels secreted into the media was performed in parallel to the eGFP assay using the same plates.
Series [3] addresses T1, androgen receptor (AR) transcriptional activity (Homo sapiens, UniProt P10275, T878A).
T1 sequence (P10275 1-920 T878A): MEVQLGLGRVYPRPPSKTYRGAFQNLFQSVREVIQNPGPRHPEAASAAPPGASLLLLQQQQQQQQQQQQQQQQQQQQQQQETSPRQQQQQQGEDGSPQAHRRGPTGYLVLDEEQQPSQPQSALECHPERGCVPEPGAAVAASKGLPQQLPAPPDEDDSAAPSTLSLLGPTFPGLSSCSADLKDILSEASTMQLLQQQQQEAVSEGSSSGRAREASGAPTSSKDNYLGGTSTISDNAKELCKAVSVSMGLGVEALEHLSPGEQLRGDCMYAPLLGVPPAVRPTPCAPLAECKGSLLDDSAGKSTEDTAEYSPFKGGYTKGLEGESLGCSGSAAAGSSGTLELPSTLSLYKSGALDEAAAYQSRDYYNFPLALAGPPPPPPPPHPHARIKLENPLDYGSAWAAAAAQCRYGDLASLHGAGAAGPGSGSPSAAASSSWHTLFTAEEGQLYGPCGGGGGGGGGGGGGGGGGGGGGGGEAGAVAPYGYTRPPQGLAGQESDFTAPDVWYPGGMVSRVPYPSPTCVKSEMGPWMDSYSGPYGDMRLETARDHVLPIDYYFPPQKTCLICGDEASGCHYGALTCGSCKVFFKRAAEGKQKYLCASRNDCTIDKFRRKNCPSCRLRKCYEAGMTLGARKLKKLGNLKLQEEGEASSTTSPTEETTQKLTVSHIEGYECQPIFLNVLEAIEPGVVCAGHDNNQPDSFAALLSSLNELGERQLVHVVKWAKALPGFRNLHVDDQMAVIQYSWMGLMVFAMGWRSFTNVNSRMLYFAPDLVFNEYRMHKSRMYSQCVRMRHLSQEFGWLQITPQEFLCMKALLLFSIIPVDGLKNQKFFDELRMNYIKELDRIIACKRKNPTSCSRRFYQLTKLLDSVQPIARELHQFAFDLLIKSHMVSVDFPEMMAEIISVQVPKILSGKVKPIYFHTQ
Kind of series: eGFP cellular AR transcription assay. The note with it: for IC50-eGFP: Table 4, substitution on quinoline moiety of VPC-13566; for AR inhibition activity: eGFP assay.

The test system of series [4] is androgen-mediated transcription in LNCaP cells. Kind of series: RNA-seq / GSEA on LNCaP cells. It counts as cell-based, human. The note with it: for GSEA normalized enrichment score (canonical AR genes): 10 nM DHT; for differentially expressed genes / downregulated genes / upregulated genes: compared to vehicle; for p53 pathway: with androgen.
The test system of series [5] is nuclear accumulation of exogenous (293T) or endogenous (LNCaP) AR. Kind of series: AR nuclear translocation. It counts as cell-based. The note with it: 293T (exogenous) or LNCaP (endogenous), DHT. The text has this:
B) Heatmap of genes from the GSEA-MySigDB “Hallmark androgen response”. […] D) Nuclear translocation of exogenous (AR-eGFP in 293T) or endogenous (LNCaP) AR following treatment with DHT.

The test system of the next series is LNCaP cells. Kind of series: Cell viability / proliferation assay (Prestoblue), LNCaP. The series is classed as cell-based, human. The note with it: 0.1 nM R1881. Here is the method: (§1) After 3 days of treatment, cell density was measured using the Prestoblue™ assay (Thermo Fisher Scientific™).
Series [6] deals with chromatin binding of AR to enhancers near KLK3 and FKBP5. Kind of series: ChIP-PCR of AR binding sites. The series is classed as cell-based.
The nature of series [7]: Drug concentration in mouse blood and brain (HPLC, fluorescence). The series is classed as in vivo, mice (C57 Black 6). Here is the method: A Halo5 C18 column was used (3.0×50 mm, 5 μm particle size; injection volume: 1 μL) having a mobile phase A: 10% acetonitrile, 90% water, 10 mM NH4HCO3 and a mobile phase B: 80% acetonitrile, 20% water, 10 mM NH4HCO3, with a flow rate: 0.7 mL/min.
The dosing solutions were given to mice (C57 Black 6) by oral gavage at 8 μL per gram of body weight (rounded to the nearest 10 μL), corresponding to 30 mg/kg. After 3 h, the animals were euthanized, and then blood and brain samples were collected and stored at 4° C. until analysis.
Blood samples (clotted) were centrifuged at 9,000 RPM for 2 min×2. Aliquots of the serum (30 μL) were placed in 150 μL micro-centrifuge tubes and acetonitrile (30 μL) were added. The mixture was vortexed briefly and allowed to stand at room temperature for 30 min. Full brains were weighed into 2 mL micro-centrifuge tubes and equal amount of acetonitrile (w/v) was added. […] The samples were centrifuged at 9000 RPM for 2 min×2. The supernatants were transferred to HPLC sample vials with conical inserts, and then analyzed by HPLC.
All compounds were dosed orally to mice, and after 3 hours, the animals were euthanized and blood and brain samples were collected. Drug levels were analyzed by HPLC equipped with a fluorescence detector as described herein.

Series [8] has as its system AR protein-protein interactions on chromatin. Kind of series: RIME of the AR interactome. The note with it: DHT treated cells.
The target of series [9] is androgen binding site (ABS) of recombinant wild type LBD (Rattus norvegicus, UniProt P15207).
androgen binding site (ABS) of recombinant wild type LBD, sequence (P15207 651-882 limits assumed): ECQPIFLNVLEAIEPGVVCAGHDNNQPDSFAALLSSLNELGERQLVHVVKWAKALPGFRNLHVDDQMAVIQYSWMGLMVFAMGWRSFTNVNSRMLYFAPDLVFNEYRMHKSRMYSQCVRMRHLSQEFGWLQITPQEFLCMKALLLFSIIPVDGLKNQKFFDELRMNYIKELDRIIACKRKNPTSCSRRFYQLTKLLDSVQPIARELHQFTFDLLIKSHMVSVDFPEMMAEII
The test system of another series is PC3 (AR negative) cells. Kind of series: Cell viability / proliferation assay (Prestoblue), PC3. It counts as cell-based, human. As for the experimental part: as §1
The nature of series [10]: Water solubility for dosing formulation. The series is classed as physicochemical. The note with it: required concentration 3.75 mg/mL. As for the experimental part: 13822 was water soluble and was formulated as plain aqueous solution at 3.75 mg/mL. […] A formulation screen was conducted to use various pharmaceutically acceptable surfactants and additives to develop a low organic solution or metastable heterogeneous suspension suitable for oral dosing.

[11] abbreviates: human, microsomes, read-out: Half-life.

The term IC50 denotes the concentration that inhibits the measured activity by half. The low end stands for greater potency in that assay, the high end for weaker potency in that assay. For the compound `Fc1cc2c(-c3ccc4c(-c5cncs5)cccc4n3)c[nH]c2c(F)c1F` [Compound 13793, 5-(2-(5,6,7-Trifluoro-1H-indol-3-yl)quinolin-5-yl)thiazole], the half-life in series [1] (setting [11]) is 1.73 h. In series [2] (Homo sapiens, LNCaP), this compound displayed an IC50 of 0.33 µM.

In the case of `Cc1cccc2c(-c3ccc4c(O)cccc4n3)c[nH]c12` [Compound 13620], in series [3], the IC50-eGFP entry is “inactive”.

As for `CC(C)NC(=O)c1c(F)ccc2nc(-c3c[nH]c4c(F)c(F)c(F)cc34)ccc12` [Compound 13802], the IC50 in series [2] (Homo sapiens, LNCaP) was over 10 µM; in [3] it was over 10 µM.

Turning to `O=C(NCC(F)F)c1cccc2nc(-c3c[nH]c4c(F)c(F)c(F)cc34)ccc12` [Compound 13808, N-(2,2-Difluoroethyl)-2-(5,6,7-trifluoro-1H-indol-3-yl)quinoline-5-carboxamide], in [1], the “microsome stability” value was “good microsome stability”.

Consider `CN(C)C(=O)c1cccc2nc(-c3c[nH]c4c(F)c(F)c(F)cc34)ccc12` [Compound 13791], for which the IC50 in [2] (Homo sapiens, LNCaP) was over 10 µM; in series [3] it was over 10 µM.

Take `CN(C)C(=O)c1c(F)ccc2nc(-c3c[nH]c4c(F)c(F)c(F)cc34)ccc12` [Compound 13803]: in series [3], the 50% inhibitory concentration (IC50) was over 10 µM.

The compound `OC(c1cccc2nc(-c3c[nH]c4c(F)c(F)c(F)cc34)ccc12)C(F)(F)F` (centres unmarked) [Compound 13804] came in with an IC50 in [3] of 32 µM.

For `Cc1ccc2c(-c3ccc4ccccc4n3)c[nH]c2c1F` [Compound 13619], the “AR inhibition activity” value in series [3] is “weaker or even inactive”.

Regarding `CNC(=O)c1ccc(N2C(=S)N(c3ccc(C#N)c(C(F)(F)F)c3)C(=O)C2(C)C)cc1F` [Enzalutamide, reference compound], in [4], the “GSEA normalized enrichment score (canonical AR genes)” value is on record as −2.31, the differentially expressed genes was 586 genes, the downregulated genes was determined as 372 and the upregulated genes stood at 214. Besides, the “p53 pathway” value in series [4] is “not observed”.

As to `O=C(NC1CC1)c1c(F)ccc2nc(-c3c[nH]c4c(F)c(F)c(F)cc34)ccc12` [Compound 13797], the IC50 in [2] (Homo sapiens, LNCaP) turned out to be 1.5 µM; in series [3] it was 1.98 µM.

In the case of `CC(C)NC(=O)c1cccc2nc(-c3c[nH]c4c(F)c(F)c(F)cc34)ccc12` [Compound 13789, N-isopropyl-2-(5,6,7-trifluoro-1H-indol-3-yl)quinoline-5-carboxamide], the “nuclear accumulation of AR” value in series [5] is “only marginally affected nuclear accumulation”. In [1], the “microsome stability” value is recorded as “good microsome stability” and the half-life is given as 206 (206.26). In addition, the “effect on growth of LNCaP cells” value in the series with LNCaP cells is “concentration-dependent inhibition of growth; also recorded: significant decrease in the growth”. In series [4], the “GSEA normalized enrichment score (canonical AR genes)” value is −3.33, the differentially expressed genes worked out at 1514 genes, the downregulated genes was 967 and the upregulated genes is given as 547. The “p53 pathway” value in [4] is given as “upregulation of the p53 pathway”. In addition, the IC50 in series [2] (Homo sapiens, LNCaP) stood at 0.08 µM. In series [6], the “chromatin binding of AR” value is reported as “significantly reduced the chromatin binding of AR”. For the same compound, the “metabolic stability judged from polar peaks in chromatograms” value in series [7] (serum and brain samples) was “metabolically more stable”. In [8], the “AR protein-protein interactions disrupted (of 112 enriched)” value is on record as 34. In addition, the “% Disp. @ 1 uM (DHT displacement from the ABS site)” value in series [9] (1 uM) turned out to be 4 ± 3.8%. For the same compound, the “ABS inhibition” value in series [9] (10 μM) was “no significant ABS inhibition”. Also, in series [9] (various concentrations), the “DHT displacement from ABS” value is on record as “Very little displacement”. In the series with PC3 (AR negative) cells, the “effect on growth of PC3 cells” value was “not with AR-independent PC3 cells; also recorded: did not exhibit any inhibitory effect”.

Regarding `Cc1cccc2c(-c3ccc4ccccc4n3)c[nH]c12` [Compound 13566, 2-(7-Methyl-1H-indol-3-yl)quinoline], in series [10], the “solubility in water” value is recorded as “not soluble in water at the required concentration”. Besides, the “blood concentration level” value in series [7] (compared with 13789) is listed as “much lower”. In [7] (mice, 3 hour time point), the “penetration of the blood-brain-barrier” value was “significantly penetrated the blood-brain-barrier”.

For `Fc1cc(Cl)cc2c(-c3ccc4ccccc4n3)c[nH]c12` [Compound 13641], the “AR inhibition activity” value in series [3] was “weaker or even inactive”.

As to `Cc1cccc2c(-c3ccc4c(F)cccc4n3)c[nH]c12` [Compound 13623], the IC50-eGFP result in series [3] is “inactive”.

“2-(2-(5,6,7-Trifluoro-1H-indol-3-yl)quinolin-5-yl)thiazole [Compound 13801]”: in series [2], the concentration for half-maximal inhibition (IC50) is over 10 µM.

For the compound `Fc1cc2c(-c3ccc4c(-c5cnco5)cccc4n3)c[nH]c2c(F)c1F` [Compound 13794], the IC50 in [2] (Homo sapiens, LNCaP) is over 10 µM; in series [3] it was over 10 µM.

Consider `O=C(NCC1CC1)c1cccc2nc(-c3c[nH]c4c(F)c(F)c(F)cc34)ccc12` [Compound 13807, N-(Cyclopropylmethyl)-2-(5,6,7-trifluoro-1H-indol-3-yl)quinoline-5-carboxamide], for which the “microsome stability” value in series [1] is “good microsome stability”. Inhibition in series [2] (Homo sapiens, LNCaP) was half-maximal at 0.16 µM (IC50).

`Fc1cc2c(-c3ccc4c(-c5cncs5)c(F)ccc4n3)c[nH]c2c(F)c1F` [Compound 13799]: the IC50 in series [2] (Homo sapiens, LNCaP) was determined as 0.75 µM; in series [3] it was 0.56 µM.

Turning to `CNC(=O)c1cccc2nc(-c3c[nH]c4c(F)c(F)c(F)cc34)ccc12` [Compound 13719], 0.13 µM corresponded to half-maximal inhibition in [2] (Homo sapiens, LNCaP) (IC50).

Regarding `O=C(NC1CC1)c1cccc2nc(-c3c[nH]c4c(F)c(F)c(F)cc34)ccc12` [Compound 13795, N-Cyclopropyl-2-(5,6,7-trifluoro-1H-indol-3-yl)quinoline-5-carboxamide], the “microsome stability” value in [1] is “good microsome stability”. Also, the half-life in series [1] (setting [11]) worked out at 4.35 h. Besides, 0.23 µM corresponded to half-maximal inhibition in series [2] (Homo sapiens, LNCaP) (IC50).

As to `CNC(=O)c1c(F)ccc2nc(-c3c[nH]c4c(F)c(F)c(F)cc34)ccc12` [Compound 13796], the IC50 in [2] (Homo sapiens, LNCaP) is 0.95 µM; in series [3] it was 5.48 µM.
